The source made the active and inactive calls. No cut-off for these calls is given here.
Legend:
[1] = molecular target: Histone deacetylase 2 (Homo sapiens, UniProt Q92769); experiment: Inhibition of recombinant HDAC2 (unknown origin) using Boc-Lys(acetyl)-AMC as substrate preincubated for 1 hr followed by substrate addition and measured after 2 hrs by fluorescence based micro plate reader analysis
[2] = molecular target: Histone deacetylase 11 (Homo sapiens, UniProt Q96DB2); experiment: Inhibition of recombinant HDAC11 (unknown origin) preincubated for 1 hr followed by substrate addition and measured after 2 hrs by fluorescence based micro plate reader analysis
[3] = tested on: B16-F10; experiment: cells; format: functional, cell-based; conditions: Mus musculus, B16-F10, 72 h
Description: Antiproliferative activity against mouse B16-F10 cells assessed as inhibition of cell growth incubated for 72 hrs by MTT assay

[4] = tested on: B16-F10; experiment: Cell cycle arrest in mouse B16-F10 cells assessed as accumulation of cells in G1 phase incubated for 48 hrs by RNase A/PI staining based flow cytometric analysis; format: functional; conditions: dose 5-20 µM
[5] = molecular target: T1, Histone deacetylase 3 (Mus musculus) (UniProt O88895); experiment: Inhibition of HDAC3 in mouse B16-F10 cells assessed as increase in histone H3 acetylation level at 5 to 20 uM incubated for 24 hrs by Western blot analysis; format: cell-based; conditions: dose 5-20 µM
T1 sequence (whole entry): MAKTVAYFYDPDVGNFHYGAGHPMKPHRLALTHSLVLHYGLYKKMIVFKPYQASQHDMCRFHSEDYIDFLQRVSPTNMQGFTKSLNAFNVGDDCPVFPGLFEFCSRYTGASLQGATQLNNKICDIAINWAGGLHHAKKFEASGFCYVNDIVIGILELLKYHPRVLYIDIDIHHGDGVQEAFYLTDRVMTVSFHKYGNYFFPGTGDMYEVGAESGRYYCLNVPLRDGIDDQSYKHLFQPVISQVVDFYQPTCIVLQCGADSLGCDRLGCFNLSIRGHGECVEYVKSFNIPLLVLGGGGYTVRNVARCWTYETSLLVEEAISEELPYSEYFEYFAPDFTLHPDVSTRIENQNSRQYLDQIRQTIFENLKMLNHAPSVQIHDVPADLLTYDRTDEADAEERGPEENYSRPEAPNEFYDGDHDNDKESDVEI

[6] = molecular target: Programmed cell death 1 ligand 1 (Mus musculus) (UniProt Q9EP73); experiment: Induction of PD-L1 degradation in mouse B16-F10 cells assessed as decrease in PD-L1 protein level by measuring maximal efficacy at 10 uM incubated for 24 hrs by Western blot analysis relative to control; format: cell-based
[7] = molecular target: T1, Histone deacetylase 3 (Mus musculus); experiment: Inhibition of HDAC3 in mouse B16-F10 cells assessed as increase in acetylated histone H3 level at 5 uM incubated for 24 hrs by DAPI staining based immunofluorescence analysis; format: cell-based
[8] = tested on: B16-F10; experiment: Upregulation of cathepsin B expression in mouse B16-F10 cells at 5 to 20 uM incubated for 24 hrs by Western blot analysis; format: functional, cell-based; conditions: dose 5-20 µM
[9] = tested on: 4T1; experiment: Downregulation of PARP1 expression in mouse 4T1 cells at 5 uM by DAPI staining based immunofluorescence analysis; format: functional, cell-based
[10] = Retention time of compound by HPLC analysis; format: physicochemical
[11] = Ratio of AUC (0 to t) to AUC (0 to infinity) in male Sprague-Dawley rat at 2 mg/kg, iv measured after 12 hrs by LC-MS/MS analysis; format: ADME, organism-based; conditions: in vivo
[12] = AUMC (0 to t) in male Sprague-Dawley rat at 2 mg/kg, iv measured after 12 hrs by LC-MS/MS analysis; format: ADME, organism-based; conditions: in vivo
[13] = Clast in male Sprague-Dawley rat at 2 mg/kg, iv measured after 12 hrs by LC-MS/MS analysis; format: ADME, organism-based; conditions: in vivo, read-out: Clast
[14] = AUMC (0 to infinity) in male Sprague-Dawley rat at 20 mg/kg, po measured after 12 hrs by LC-MS/MS analysis; format: ADME, organism-based; conditions: in vivo
[15] = VRT (0 to infinity) in male Sprague-Dawley rat at 20 mg/kg, po measured after 12 hrs by LC-MS/MS analysis; format: ADME, organism-based; conditions: in vivo
[16] = tested on: B16-F10; experiment: Synergistic antitumor activity against mouse B16-F10 cells implanted in male C57BL/6 mouse model assessed as tumor growth inhibition at 50 mg/kg, po co-administered with NP-19 as once daily dosage via gavage for 14 days relative to control; format: functional; conditions: B16-F10, 336 h, time 14 day, read-out: TGI
[17] = Toxicity in male C57BL/6 mouse implanted with mouse B16-F10 cells assessed as body weight loss at 50 mg/kg, po administered once daily for 14 days; format: organism-based; conditions: in vivo, 336 h, time 14 day
[18] = Toxicity in male C57BL/6 mouse implanted with mouse B16-F10 cells assessed as histopathological changes in heart at 50 mg/kg, po co-administered with NP-19 as once daily dosage via gavage for 14 days by HandE staining based microscopic analysis; format: organism-based; conditions: in vivo, 336 h, time 14 day
[19] = tested on: Mus musculus; experiment: Immunomodulatory activity in male C57BL/6 mouse model implanted with mouse B16-F10 cells assessed as increase in CD3+ CD4+ T cells in tumor at 50 mg/kg, po co-administered with NP-19 as once daily dosage via gavage for 14 days by flow cytometric analysis (reference value: 3.1 %); format: functional; conditions: time 14 day
[20] = tested on: Mus musculus; experiment: In vivo induction of PD-L1 degradation in male C57BL/6 mouse model implanted with mouse B16-F10 cells assessed as decrease in PD-L1 protein expression in tumor at 50 mg/kg, po administered once daily via gavage for 14 days by Western blot analysis; format: functional, organism-based; conditions: time 14.0 day
[21] = tested on: Mus musculus; experiment: In vivo induction of PD-L1 degradation in male C57BL/6 mouse model implanted with mouse B16-F10 cells assessed as decrease in PD-L1 protein expression in tumor at 50 mg/kg, po co-administered with NP-19 as once daily dosage via gavage for 14 days by Western blot analysis; format: functional, organism-based; conditions: time 14.0 day
[22] = tested on: Mus musculus; experiment: In vivo induction of PD-L1 degradation in male C57BL/6 mouse model implanted with mouse B16-F10 cells assessed as decrease in PD-L1 protein expression in tumor at 50 mg/kg, po administered once daily via gavage for 14 days by DAPI staining based immunofluorescence analysis; format: functional, organism-based; conditions: time 14.0 day
[23] = tested on: 4T1; experiment: Antitumor activity against mouse 4T1 cells implanted in female BALB/c mouse model assessed as tumor growth inhibition administrated orally as once daily dose via gavage for 14 days relative to control; format: functional; conditions: route po; time 14 day
[24] = tested on: 4T1; experiment: Antitumor activity against mouse 4T1 cells implanted in female BALB/c mouse model assessed as decrease in PAPR1 expression in tumor co-administrated orally with olaparib as once daily dose via gavage for 14 days by Western blot analysis; format: functional, cell-based; conditions: route po, time 14.0 day
[25] = tested on: 4T1; experiment: Antitumor activity against mouse 4T1 cells implanted in female BALB/c mouse model assessed as decrease in PAPR1 expression in tumor administrated orally as once daily dose via gavage for 14 days by Western blot analysis; format: functional, cell-based; conditions: route po, time 14.0 day
[26] = tested on: 4T1; experiment: Antitumor activity against mouse 4T1 cells implanted in female BALB/c mouse model assessed as induction of DNA damage by measuring increase in gamma-H2AX expression in tumor administrated orally as once daily dose via gavage for 14 days by Western blot analysis; format: functional, cell-based; conditions: route po, time 14.0 day
[27] = tested on: 4T1; experiment: Antitumor activity against mouse 4T1 cells implanted in female BALB/c mouse model assessed as induction of DNA damage by measuring increase in gamma-H2AX expression in tumor administrated orally as once daily dose via gavage for 14 days by DAPI staining based immunofluorescence analysis; format: functional, cell-based; conditions: route po, time 14.0 day

Histone deacetylase 2, sequence (Q92769 whole entry): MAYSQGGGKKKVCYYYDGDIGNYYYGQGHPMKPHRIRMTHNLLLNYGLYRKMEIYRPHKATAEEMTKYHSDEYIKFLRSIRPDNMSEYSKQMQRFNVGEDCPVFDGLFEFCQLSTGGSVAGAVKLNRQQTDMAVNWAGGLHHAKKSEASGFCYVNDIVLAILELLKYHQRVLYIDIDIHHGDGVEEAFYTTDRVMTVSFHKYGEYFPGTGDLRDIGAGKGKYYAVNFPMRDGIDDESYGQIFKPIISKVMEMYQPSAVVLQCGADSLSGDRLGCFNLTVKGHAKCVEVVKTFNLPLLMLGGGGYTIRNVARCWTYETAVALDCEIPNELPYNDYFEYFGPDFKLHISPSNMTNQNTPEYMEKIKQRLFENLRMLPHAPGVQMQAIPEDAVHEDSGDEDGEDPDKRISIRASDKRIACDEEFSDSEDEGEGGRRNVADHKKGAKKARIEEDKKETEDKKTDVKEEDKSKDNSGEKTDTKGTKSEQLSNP
Programmed cell death 1 ligand 1 (Mus musculus), sequence (Q9EP73 whole entry): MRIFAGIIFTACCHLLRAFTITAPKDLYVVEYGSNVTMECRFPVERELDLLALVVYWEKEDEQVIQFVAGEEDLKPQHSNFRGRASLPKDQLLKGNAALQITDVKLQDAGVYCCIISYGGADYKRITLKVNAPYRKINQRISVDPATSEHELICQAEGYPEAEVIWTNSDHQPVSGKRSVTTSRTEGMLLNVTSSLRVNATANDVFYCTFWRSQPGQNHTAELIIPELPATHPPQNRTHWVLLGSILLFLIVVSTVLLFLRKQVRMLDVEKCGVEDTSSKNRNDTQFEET
Histone deacetylase 11, sequence (Q96DB2 whole entry): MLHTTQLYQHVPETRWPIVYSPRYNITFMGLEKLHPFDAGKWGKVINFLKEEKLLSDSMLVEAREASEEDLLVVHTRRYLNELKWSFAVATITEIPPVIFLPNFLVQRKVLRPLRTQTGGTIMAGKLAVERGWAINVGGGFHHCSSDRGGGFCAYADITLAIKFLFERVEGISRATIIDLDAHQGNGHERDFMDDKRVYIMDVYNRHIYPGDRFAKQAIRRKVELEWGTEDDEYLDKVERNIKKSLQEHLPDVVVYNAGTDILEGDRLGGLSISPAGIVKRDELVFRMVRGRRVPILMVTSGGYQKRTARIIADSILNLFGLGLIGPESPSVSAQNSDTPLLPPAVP

- IC50 [1]: 9.77 µM
- IC50 [2]: 8.87 µM
- IC50 [3]: 5.56 µM
- inhibition [5]: Active
- inhibition [7]: Active
- Retention_time [10]: 10.16 min
- Ratio AUC [11]: 99.95%
- AUMCt [12]: 626.686 hr.hr.ug/L
- concentration at 12 h [13]: 0.475 ng/mL
- AUMC [14]: 39983.874 hr.hr.ug/L
- VRT [15]: 12.987 hr2
SMILES: CCCNNC(=O)c1ccc(Cn2c3ccccc3c3c(-c4ccccn4)nc4ccccc4c32)cc1
- Activity [4]: Dose-dependent-effect
- Emax [6]: 85%
- Activity [8]: Active
- Activity [9]: Active
- inhibition in vivo at 50 mg/kg [16]: 80%
- Activity [17]: Non-toxic
- Activity [18]: Non-toxic
- Activity [19]: 32%
- Activity [20]: Active
- Activity [21]: Active
- Activity [22]: Active
- TGI [23]: 41%
- Activity [24]: Active
- Activity [25]: Active
- Activity [26]: Active
- Activity [27]: Active; Comparable To The Effect Of Olaparib

Reference: ChEMBL document CHEMBL6096732 (J Med Chem, 2025)
